Measured values as given in patent US20130190407A1, “CALCIUM RECEPTOR-ACTIVE MOLECULES” (NPS Pharmaceuticals, Inc., priority 1991, published 2013).

Columns and labels:
Assay type in all cases: cell-based
[1] = molecular target: T1, C-cell calcium receptor (Rattus norvegicus, UniProt P48442)
T1 construct: cultured cell lines expressing the C-cell phenotype (e.g., rat medullary thyroid carcinoma cells; rMTC 6-23 cells); host or cells: rMTC 6-23 rat medullary thyroid carcinoma cells
T1 sequence (P48442 20-1079): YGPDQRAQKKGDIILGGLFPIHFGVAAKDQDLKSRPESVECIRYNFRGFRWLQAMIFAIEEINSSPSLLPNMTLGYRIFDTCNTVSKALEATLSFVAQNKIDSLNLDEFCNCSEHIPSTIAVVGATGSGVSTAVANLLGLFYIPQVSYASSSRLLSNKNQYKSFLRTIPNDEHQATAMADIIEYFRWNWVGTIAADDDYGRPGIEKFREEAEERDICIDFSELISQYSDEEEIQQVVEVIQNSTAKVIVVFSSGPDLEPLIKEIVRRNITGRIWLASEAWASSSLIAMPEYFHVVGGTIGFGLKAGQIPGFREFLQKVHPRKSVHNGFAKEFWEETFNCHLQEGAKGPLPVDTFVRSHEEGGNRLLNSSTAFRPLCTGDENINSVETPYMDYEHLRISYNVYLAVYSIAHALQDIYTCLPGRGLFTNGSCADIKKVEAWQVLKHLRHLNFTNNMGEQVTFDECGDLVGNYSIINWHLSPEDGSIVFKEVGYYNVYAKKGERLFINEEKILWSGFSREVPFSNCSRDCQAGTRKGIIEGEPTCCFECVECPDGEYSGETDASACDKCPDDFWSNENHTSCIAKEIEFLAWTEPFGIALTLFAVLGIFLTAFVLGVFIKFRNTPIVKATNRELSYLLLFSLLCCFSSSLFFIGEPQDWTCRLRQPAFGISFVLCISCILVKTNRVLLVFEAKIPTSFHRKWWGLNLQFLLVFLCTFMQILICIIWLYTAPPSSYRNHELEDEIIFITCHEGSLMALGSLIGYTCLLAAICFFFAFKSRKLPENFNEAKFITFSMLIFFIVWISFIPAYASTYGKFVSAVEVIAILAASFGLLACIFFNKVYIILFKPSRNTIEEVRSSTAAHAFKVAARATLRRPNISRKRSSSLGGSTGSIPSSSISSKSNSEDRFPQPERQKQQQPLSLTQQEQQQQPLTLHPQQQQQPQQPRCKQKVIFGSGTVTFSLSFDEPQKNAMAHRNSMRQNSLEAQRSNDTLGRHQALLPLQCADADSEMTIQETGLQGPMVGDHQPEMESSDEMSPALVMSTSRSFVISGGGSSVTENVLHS

[2] = molecular target: T2, calcium receptor (Homo sapiens, UniProt P41180); test: Cl- current in Xenopus oocytes injected with human parathyroid cell mRNA
T2 construct: poly(A)^+-enriched mRNA from human parathyroid tissue (hyperplastic glands from a case of secondary HPT); expressed in transfected cells; host or cells: Xenopus laevis oocytes injected with poly(A)+ mRNA from hyperplastic human parathyroid glands
T2 sequence (P41180 20-1078): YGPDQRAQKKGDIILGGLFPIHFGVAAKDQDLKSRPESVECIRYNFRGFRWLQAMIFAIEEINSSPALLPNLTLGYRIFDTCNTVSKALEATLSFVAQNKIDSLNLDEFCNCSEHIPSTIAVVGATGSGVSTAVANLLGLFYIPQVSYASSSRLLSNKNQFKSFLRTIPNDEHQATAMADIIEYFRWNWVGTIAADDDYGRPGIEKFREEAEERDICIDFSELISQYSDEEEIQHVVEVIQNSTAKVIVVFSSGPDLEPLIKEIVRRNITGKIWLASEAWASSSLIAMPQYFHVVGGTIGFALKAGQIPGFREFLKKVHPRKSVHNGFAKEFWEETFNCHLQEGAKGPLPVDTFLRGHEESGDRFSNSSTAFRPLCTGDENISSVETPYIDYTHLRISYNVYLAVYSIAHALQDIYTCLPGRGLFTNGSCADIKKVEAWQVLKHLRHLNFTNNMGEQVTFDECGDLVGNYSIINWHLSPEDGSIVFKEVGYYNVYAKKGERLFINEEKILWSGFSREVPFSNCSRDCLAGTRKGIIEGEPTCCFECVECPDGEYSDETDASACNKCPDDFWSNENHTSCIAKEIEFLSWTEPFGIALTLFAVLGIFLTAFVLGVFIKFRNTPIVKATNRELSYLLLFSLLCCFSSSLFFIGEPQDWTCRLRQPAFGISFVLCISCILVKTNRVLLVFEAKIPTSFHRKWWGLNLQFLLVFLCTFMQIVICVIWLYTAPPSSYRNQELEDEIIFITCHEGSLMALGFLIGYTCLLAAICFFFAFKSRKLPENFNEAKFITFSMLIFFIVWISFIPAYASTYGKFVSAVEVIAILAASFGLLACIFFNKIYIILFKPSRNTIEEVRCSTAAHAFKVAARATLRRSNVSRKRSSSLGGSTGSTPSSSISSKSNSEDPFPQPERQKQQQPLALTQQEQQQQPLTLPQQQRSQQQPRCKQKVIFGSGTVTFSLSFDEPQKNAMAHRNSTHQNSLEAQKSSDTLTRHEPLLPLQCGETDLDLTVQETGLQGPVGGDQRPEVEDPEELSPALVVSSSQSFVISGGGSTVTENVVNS
Description: Oocytes were injected with poly(A)^+-enriched mRNA from human parathyroid tissue (hyperplastic glands from a case of secondary HPT).
Following incubation, an oocyte was placed into a 100-μl plastic chamber and superfused with MBS at a flow rate of 0.5 ml/min using a peristaltic pump. Test molecules or inorganic polycations were added by rapidly moving the tubing into different buffers. Recording and current-passing electrodes were constructed from thin-wall capillary tubing pulled to a resistance of 1-3 Mohms and filled with 3 M KCl. […] Currents were recorded directly onto a strip chart recorder.
Using this screen allows one to test for an action directly on the calcium receptor. Oocytes expressing the calcium receptor also responded to several molecules active on intact parathyroid cells when screened as follows. […] This offers rather compelling evidence showing that these molecules act on the calcium receptor or on some other protein intimately associated with its function.

[3] = tested on: Bovine parathyroid cells; conditions: 10 μM isoproterenol 15 min; no pertussis toxin; 2.0 mM Ca2+, 200 μM spermine, 30 μM neomycin B, 2 μg/ml protamine; mean ± SEM
Description: This section describes measuring cyclic AMP levels. Cells were incubated as above for PTH secretion studies and at the end of the incubation, a 0.15-ml sample was taken and transferred to 0.85 ml of hot (70° C.) water and heated at this temperature for 5-10 minutes. The tubes were subsequently frozen and thawed several times and the cellular debris sedimented by centrifugation. Portions of the supernatant were acetylated and cyclic AMP concentrations determined by radioimmunoassay.
Bovine parathyroid cells were cultured for 16 hours with or without 100 ng/ml pertussis toxin. […] Each value is the mean±SEM of three experiments.

With NC[C@@H]1O[C@H](O[C@H]2[C@@H](O)[C@H](O[C@@H]3[C@@H](O)[C@H](N)C[C@H](N)[C@H]3O[C@H]3O[C@H](CN)[C@@H](O)[C@H](O)[C@H]3N)O[C@@H]2CO)[C@H](N)[C@@H](O)[C@@H]1O [Neomycin B, neomycin B] the “effect on basal [Ca2+]i” value [1] was “without effect”, the “EC50 C-CELL” value ([1]; Table 6, rMTC 6-23 cells) was “inactive” and the “change in current in water-injected oocytes” value ([2]; 10 mM, five water-injected oocytes) was “failed to cause any change in the current”. For the same compound, the “mobilization of intracellular Ca2+ in oocytes” value ([2]; hexacyclen 135 μM, neomycin 100 μM, NPS 382 5 mM) was “effective” and the “cyclic AMP (% of control), control” value [3] was 28 ± 8 % of control.
